Assay [1] deals with in vitro derived resistant UACC-257X2.2 cells. The assay is described as follows: In vitro cell proliferation (CellTiter-Glo, five days). It is filed as cell-based. To be noted: in vitro derived resistant line. As to the method:
For resistance developed in vitro, UACC-257X2.2 cells were adapted to increasing concentrations of anti-ETBR-vc-MMAE in culture dishes over the course of two months.
(§1) In vitro cell proliferation of the cell lines in the presence of the immunoconjugates was assessed. Cells were plated at 1,500 cells per well in 50 μL of normal growth medium in 96-well clear-bottom plates. Twenty-four hours later, an additional 50 μL of culture medium with serial dilutions of immunoconjugates were added to triplicate wells. Five days later, cell survival was determined using CellTiter-Glo Luminescent Cell Viability Reagent (G7572, Promega Corporation, Madison, Wis.) using an EnVision 2101 Mutilabel Reader (Perkin-Elmer, Waltham, Mass.).

Assay [2] deals with parental UACC-257X2.2 cells. Described as above. It is filed as cell-based. The conditions noted are these: parental line. As to the method: as §1
Assay [3] deals with in vivo derived resistant UACC-257X2.2 cells. The assay is described as above. It is filed as cell-based. The conditions noted are these: in vivo derived resistant line. As to the method: Tumor #359 was harvested and the cells were dissociated for growth in vitro (referred to herein as in vivo-derived resistant UACC-257X2.2 cells).
as §1

In assay [4] the test system is vector control PC3 parental cell line. The assay is described as follows: Inhibition of in vitro cell proliferation (CellTiter-GloII). It is filed as cell-based. The conditions noted are these: out to 10 μg/ml of ADC. In general terms: ATP-based viability assays read luminescence as a measure of living cells.
For a further assay, the system named is normal human melanocytes. The assay is described as follows: Toxicity of anti-PMEL17 ADC in normal melanocytes (CellTiter-GloII, five days). It is filed as cell-based. To be noted: versus SK-MEL-5 and SK-MEL-23, five days. As to the method: Finally, SK-MEL-5 and SK-MEL-23 melanoma cells, or normal human melanocytes, were incubated with serial dilutions of the 17A9 ADC and five days later cell numbers were determined using CellTiter-GloII.

For assay [5], the system named is PC3 cells stably expressing PMEL17. The assay is described as follows: Inhibition of in vitro cell proliferation (CellTiter-GloII). It is filed as cell-based. As to the method: Proliferation in the presence of 17A9 ADC was assessed using PMEL17+ melanoma cells and PC3 cells stably expressing PMEL17 plated at 2,000 per well in 50 μL of normal growth medium in 96-well clear-bottom plates (PerkinElmer). Twenty-four hours later, an additional 50 μL of culture medium with serial dilutions of 17A9 ADC were added to triplicate wells. Three or five days later, cell numbers were determined using CellTiter-GloII (Promega Corp.) and with an EnVision 2101 Mutilabel Reader (PerkinElmer).

The test system of assay [6] is SK-MEL-23 melanoma cell line xenograft. The assay is described as follows: SK-MEL-23 melanoma cell line xenograft. It is filed as in vivo, mice. The conditions noted are these: single IV injection, 6 mg/kg. As to the method: The efficacy of the anti-PMEL17 ADCs was investigated using an SK-MEL-23 melanoma cell line xenograft model. Female CRL Nu/Nu mice from Charles River Laboratories were inoculated subcutaneously in the dorsal right flank with five million SK-MEL-23 cells in HBSS with Matrigel. […] When tumor volumes reached ˜200 mm^3 (day 0), animals were randomized into groups of 10 each and administered a single IV injection of 2 or 6 mg/kg 17A9 ADC. MMAE conjugated to anti-GP120 antibody was used as a control. Tumor volumes were measured twice per week until study end. Tumor volumes were determined using digital calipers (Fred V. Fowler Company, Inc.) using the formula (L×w×W)/2. Tumor growth inhibition (% TGI) was calculated as the percentage of the area under the fitted curve (AUC) for the respective dose group per day in relation to the vehicle, such that % TGI=100×[1−(AUCtreatment/day)/(AUCvehicle/day)]. Curve fitting was applied to Loge transformed individual tumor volume data using a linear mixed-effects model using the R package nlme, version 3.1-96 in R v2.10.1.

The next assay has as its system human PMEL17. The assay is described as follows: Monoclonal antibody epitope mapping with PMEL17 deletion mutants (immunoblot, FACS). It is filed as binding. The conditions noted are these: N-terminal deletions by immunoblot; C-terminal deletions in 293 cells by FACS. As to the method:
All the constructs for epitope mapping were made by PCR amplification of each fragment and subcloning into either pRKtkneo vector with an N-terminal gD tag, or pRKtkneo vector with an N-terminal gD tag and a C-terminal GPI anchor. Transfections were performed using FuGene 6 (Roche Applied Science), and empty vector was used as control. Full-length human PMEL17 was subcloned into pRKtkneo vector with an N-terminal gD tag.
A signal sequence and a gD epitope tag were fused to the N-terminal sequence of a series of deletion mutants, which were then expressed in mammalian cells and the lysates analyzed by immuoblotting for reactivity with 17A9 or 77E6. The N-terminal deletions tested included Δ100, Δ255, Δ292, Δ315, Δ444, Δ515, and Δ567.
In addition, C-terminal deletions with an N-terminal gD tag and a C-terminal GPI anchor were transiently transfected into 293 cells and analyzed for antibody binding by FACS. The C-terminal deletions tested included PMEL1725-125, PMEL1725-105, PMEL1725-85, PMEL1725-65, and PMEL1725-45. Finally, a PMEL17 fragment comprising the region from amino acid 515 through the transmembrane domain, but lacking the cytoplasmic region (“Δ515-C”) and a PMEL17 fragment comprising just the cytoplasmic domain with an N-terminal gD tag and a C-terminal GPI anchor were analyzed by immuoblotting for reactivity with 77E6.
(In western blotting, separated proteins are transferred to a membrane and probed.)

Setting [7] is: linker-drug without antibody, read-out: EC50.

The term EC50 denotes the midpoint of the concentration-response curve.

Like-named read-outs stand apart in the source and are kept apart here.

Regarding MC-PNU-159682, the concentration giving a half-maximal response (EC50) was 0.15 nM in assay [1] (setting [7]), 0.18 nM in assay [2] (setting [7]) and 0.133 nM in assay [3] (setting [7]).
The corresponding values for MC-vc-PAB-MMAE are 3.5 nM, 0.28 nM and 0.77 nM.
In the case of MC-vc-PAB-PNU-159682, the half-maximal effective concentration (EC50) in assay [1] (setting [7]) stood at 6.6 nM; in assay [2] (setting [7]), 2 nM; in assay [3] (setting [7]), 4.2 nM.

B1: 17A9 ADC (conjugate)
VH: EVQLQQSGPELVKPGASMKISCKSSGYSFTRYTMNWVKQSHGKNLEWIGVINPYNGGTVYNQKFKGKATLTVDKSSSTAYMELLSLTSEDSAVYYCARTDYDGYAMDYWGQGTSVTVSS
VL: DVQITQSPSYLAASPGETITINCRATKSISKYLAWYQEQPGKTNNLLIYSGSTLQSGIPSRFSGSGSGTDFTLTISSLEPEDFAMYYCQQHNEYPYTFGSGTKLEIK
Take B1: the cell killing entry is given as “no killing” in assay [4] and “effectively killed” in assay [5]. The “IC50 on normal melanocytes relative to melanoma cell lines” value with normal human melanocytes is given as approximately 100 fold. For the same molecule, the “effect on tumor growth” value in assay [6] is on record as “retard tumor growth for several weeks”.

B2: anti-PMEL17-vc-MMAE: anti-PMEL17 ADC with protease-cleavable val-cit linker and MMAE (17A9 or ch17A9 with MC-vc-PAB-MMAE) (conjugate)
VH: B1 VH
VL: B1 VL
Consider B2, for which the EC50 is recorded as 764 ng/mL in assay [1] (immunoconjugates), 33 ng/mL in assay [2] (immunoconjugates) and 119 ng/mL in assay [3] (immunoconjugates).

B3: 14C10: anti-PMEL17 antibody that binds to the same deletion fragments as 17A9 (antibody, V domains shown)
VH: QVTLKESGPGILQPSQTLSLTCSFSGFSLSTSAMGIGWIRQPSGKGLEWLAHIWWDDDKRYNPALKSRLTISKDTSRNQVFLKIASVDTADTATYFCARIDGIYDGSFYAMDYWGQGTSVTVSS
VL: DIVLTQSPASLAVSLGQRATISCRASESVDSYGNSFMHWYQQKPGQPPKLLIYRASNLESGIPARFSGSGSRTDFTLTINPVEADDVANYYCQQSNEDYTFGGGTKLEIK
Take B3: the “binding to PMEL17 deletion mutants” value in the assay on human PMEL17 is “binds to the same deletion fragments as 17A9”.

The values above are taken from patent US10196454B2, “Anti-PMEL17 antibodies and immunoconjugates” (GENENTECH, INC., priority 2012, dated 2019).
